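Grown in 96-well plates, cells were treated for 48 hours with each compound at five concentrations. Insufficient inhibition: endpoint recorded as highest concentration tested. The concentration for full growth arrest is given as TGI.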
Assays:
Assay in all cases: inhibition of tumour cell growth, NCI panel, 48 h
[1] = test system: 786-0 renal
[2] = test system: A498 renal
[3] = test system: A549 NSCLC
[4] = test system: ACHN renal
[5] = test system: BT-549 breast
[6] = test system: CAKI-1 renal
[7] = test system: CCRF-CEM leukemia
[8] = test system: COLO 205 colon
[9] = test system: DU-145 prostate
[10] = test system: EKVX NSCLC
[11] = test system: HCC-2998 colon
[12] = test system: HCT-116 colon
[13] = test system: HCT-15 colon
[14] = test system: HL-60(TB) leukemia
[15] = test system: HOP-62 NSCLC
[16] = test system: HOP-92 NSCLC
[17] = test system: HS 578T breast
[18] = test system: HT29 colon
[19] = test system: IGROV1 ovarian
[20] = test system: K-562 leukemia
[21] = test system: KM12 colon
[22] = test system: LOX IMVI melanoma
[23] = test system: M14 melanoma
[24] = test system: MALME-3M melanoma
[25] = test system: MCF7 breast
[26] = test system: MDA-MB-231 breast
[27] = test system: MDA-MB-435
[28] = test system: MDA-N
[29] = test system: MOLT-4 leukemia
[30] = test system: NCI-H226 lung
[31] = test system: NCI-H23 lung
[32] = test system: NCI-H460 lung
[33] = test system: NCI-H522 lung
[34] = test system: NCI/ADR-RES ovarian
[35] = test system: OVCAR-3 ovarian
[36] = test system: OVCAR-4 ovarian
[37] = test system: OVCAR-5 ovarian
[38] = test system: OVCAR-8 ovarian
[39] = test system: PC-3 prostate
[40] = test system: RPMI-8226 leukemia
[41] = test system: RXF 393 renal
[42] = test system: SF-268 CNS
[43] = test system: SF-295 CNS
[44] = test system: SF-539 CNS
[45] = test system: SK-MEL-2 melanoma
[46] = test system: SK-MEL-28 melanoma
[47] = test system: SK-MEL-5 melanoma
[48] = test system: SK-OV-3 ovarian
[49] = test system: SN12C renal
[50] = test system: SNB-19 CNS
[51] = test system: SNB-75 CNS
[52] = test system: SW-620 colon
[53] = test system: T-47D breast
[54] = test system: TK-10 renal
[55] = test system: U251 CNS
[56] = test system: UACC-257 melanoma
[57] = test system: UACC-62 melanoma
[58] = test system: UO-31 renal

Measured: TGI

c1ccc2c(c1)Oc1cccc3cccc-2c13
> 100 µM: all assays above

CCSc1n/c(=C\c2ccc(N(C)C)cc2)c2nnnn12
not listed: [20] | [22] | [44] | [58]
> 100 µM: all other assays above

CC1CC2(OC2C)C(=O)OC2CCN(C)C/C=C(/COC(=O)C1(C)O)C2=O (stereo not drawn)
not listed: [29] | [30]
> 100 µM: all other assays above
